In one series the test system is HTT CJ mRNA. Nature of the series: Gene panel canonical junction qPCR assay, HTT. To be noted: Homo sapiens, larger gene panel, read-out: HTT IC50 (decrease in CJ mRNA levels). The series is classed as cell-based. Here is the method: (§1) Compounds described herein were used to modulate RNA transcript abundance in cells. The expression of a target mRNA was measured by detecting the formation of an exon-exon junction in the canonical transcript (CJ). A compound mediated exon-inclusion event was detected by observing an increase in formation of a new junction with an alternative exon (AJ). Real-time qPCR assays were used to detect these splicing switches and interrogate the potency of various compounds towards different target genes. A high-throughput real time quantitative PCR (RT-qPCR) assay was developed to measure these two isoforms of the mRNA (CJ and AJ) for exemplary genes, such as HTT, SMN2, and MYB, together with a control housekeeping gene, GAPDH or GUSB or PPIA, used for normalization. Briefly, the A673 or K562 cell line was treated with various compounds described herein (e.g., compounds of Formula (I)). After treatment, the levels of the HTT, MYB, or SMN2 mRNA targets were determined from each sample of cell lysate by cDNA synthesis followed by qPCR.
(§2) The A673 cell line was cultured in DMEM with 10% FBS. Cells were diluted with full growth media and plated in a 96-well plate (15,000 cells in 100 ul media per well). The plate was incubated at 37° C. with 5% CO2 for 24 hours to allow cells to adhere. An 11-point 3-fold serial dilution of the compounds was made in DMSO then diluted in media in an intermediate plate. Compounds were transferred from the intermediate plate to the cell plate with the top dose at a final concentration of 10 uM in the well. Final DMSO concentration was kept at or below 0.25%. The cell plate was returned to the incubator at 37° C. with 5% CO2 for an additional 24 hours.
(§3) The K562 cell line was cultured in IMDM with 10% FBS. For K562, cells were diluted with full growth media and plated in either a 96-well plate (50,000 cells in 50 uL media per well) or a 384-well plate (8,000-40,000 cells in 45 uL media per well). An 11-point 3-fold serial dilution of the compounds were made in DMSO then diluted in media in an intermediate plate. Compound was transferred from the intermediate plate to the cell plate with the top dose at a final concentration of 10 uM in the well. Final DMSO concentration was kept at or below 0.25%. Final volume was 100 uL for 96-well plate and 50 uL for 384-well plate. The cell plate was then placed in an incubator at 37° C. with 5% CO2 for 24 hours.
(§4) The data analysis was performed by first determining the ΔCt vs the housekeeper gene. This ΔCt was then normalized against the DMSO control (ΔΔCt) and converted to RQ (relative quantification) using the 2^(−ΔΔCt) equation. The RQ were then converted to a percentage response by arbitrarily setting an assay window of 3.5 and 4.0 ΔCt for HTT-CJ and MYB-CJ respectively and an assay window of 9 and 3 ΔCt for HTT-AJ and MYB-AJ in 96 well format (50,000 K562 cells/well and 15,000 A673 cells per well) and an assay window of 3 and 4 ΔCt for HTT-CJ and MYB-CJ respectively and an assay window of 5 and 3 ΔCt for HTT-AJ and MYB-AJ respectively in 384 well format (8,000 K562 cells/well example). […] The percentage response was then fitted to the 4 parametric logistic equation to evaluate the concentration dependence of compound treatment. The increase in AJ mRNA is reported as AC50 (compound concentration having […] in AJ increase) while the decrease in CJ mRNA levels is reported as IC50 (compound concentration having 50% response in CJ decrease).
(§5) Additional studies were carried out for a larger panel of genes using the protocol provided above. The junction between flanking upstream and downstream exons was used to design canonical junction qPCR assays. At least one of the forward primer, reverse primer or the CY5-labeled 5′ nuclease probe (with 3′ quencher such as ZEN/Iowa Black FQ) was designed to overlap with the exon junction to capture the CJ mRNA transcript. […]
Background: Real-time PCR tracks product formation cycle by cycle.

The subject of a further series is Target C CJ mRNA. Nature of the series: Gene panel canonical junction qPCR assay, Target C. The format is cell-based. To be noted: Homo sapiens, larger gene panel, read-out: Target C IC50 (decrease in CJ mRNA levels). On the procedure:
as §1, §2, §3, §4, §5

A short description of series [1]: Cell Titer Glo 2.0 cell viability assay. To be noted: human, K562 cells. On the technique in general: Cellular ATP, detected with luciferase, serves as a proxy for viable cell number.
Protocol: Compounds described herein were screened for toxicity in K562 (human chronic myelogenous leukemia) cells using a Cell Titer Glo 2.0 assay.
• Promega CellTiter-Gbo® 2.0 Cell Viability Assay (cat #G9241) • Corning 384-well TC-treated microplates (cat #3570)
Cells were plated at 500 cells/well (K562 cells) in 45 μL of IMDM supplemented with 10% FBS in a 384-well opaque plate. Wells containing only medium were used as a blank control. Test compounds (e.g., compounds of Formula (I), (II), and (III)) were first serially diluted in DMSO then diluted 1:100 with IMDM+10% FBS. The final concentration of DMSO was 0.1% in each well. The cells were incubated for 72 hours at 37° C. and 5% CO2 before assaying with Cell Titer Glo 2.0 reagent.
In another series the test system is MYB mRNA. Nature of the series: Splicing RT-qPCR assay, MYB canonical (CJ) and alternative (AJ) junction mRNA. To be noted: Homo sapiens, A673 or K562 cells, 24 hours treatment; for IC50: decrease in CJ mRNA; for AC50: increase in AJ mRNA. The format is cell-based. On the procedure: as §1
(§6) • Cells-to-CT 1-step kit: ThermoFisher A25602, Cells-to-CT lysis reagent: ThermoFisher 4391851C, TaqMan™ Fast Virus 1-Step Master Mix: ThermoFisher 4444436 • GAPDH: VIC-PL, ThermoFisher 4326317E (Assay: Hs99999905_ml)—used for K562/suspension cell lines • GUSB: VIC-PL, ThermoFisher 4326320E (Assay: Hs99999908_ml)—used for K562/suspension cell lines • PPIA: VIC-PL, ThermoFisher 4326316E (Assay: Hs99999904_ml)—used for A673/adherent cell lines
as §2, §3
(§7) The cells were then gently washed with 50 uL-100 uL cold PBS before proceeding to addition of lysis buffer. 30 uL-50 μL of room temperature lysis buffer with DNAse I (and optionally RNAsin) was added to each well. Cells were shaken/mixed thoroughly at room temperature for 5-10 minutes for lysis to take place and then 3 uL-5 μL of room temperature stop solution was added and wells were shaken/mixed again. After 2-5 minutes, the cell lysate plate was transferred to ice for RT-qPCR reaction setup. The lysates could also be frozen at −80° C. for later use.
(§8) In some cases, a direct lysis buffer was used. An appropriate volume of 3×lysis buffer (10 mM Tris, 150 mM NaCl, 1.5%-2.5% Igepal and 0.1-1 U/uL RNAsin, pH 7.4) was directly added to either K562 or A673 cells in media and mixed by pipetting 3 times. The plates were then incubated at room temperature with shaking/rocking for 20-50 minutes to allow for lysis to take place. After this time, the cell lysate plate was transferred to ice to set up for the RT-qPCR reactions. The lysates could also be frozen at −80° C. for later use. […]

The test system of the next series is HTT mRNA. The experiment in a line: Splicing RT-qPCR assay, HTT canonical (CJ) and alternative (AJ) junction mRNA. The series is classed as cell-based. The note with it: Homo sapiens, A673 or K562 cells, 24 hours treatment; for IC50: decrease in CJ mRNA; for AC50: increase in AJ mRNA. On the procedure:
as §1, §6, §2, §3, §7, §8

The next series deals with SMN2 CJ mRNA. Nature of the series: Gene panel canonical junction qPCR assay, SMN2. The format is cell-based. To be noted: Homo sapiens, larger gene panel, read-out: SMN2 IC50 (decrease in CJ mRNA levels). On the procedure: as §1, §2, §3, §4, §5

Consider `Cc1cn2cc(-c3cc(=O)n4nc(N5CCN(C)CC5)sc4n3)cc(F)c2n1` [Compound 159, 7-(8-fluoro-2-methylimidazo[1,2-a]pyridin-6-yl)-2-(4-methylpiperazin-1-yl)-5H-[1,3,4]thiadiazolo[3,2-a]pyrimidin-5-one], for which the IC50 with HTT CJ mRNA, with Target C CJ mRNA, in the series on MYB mRNA, in the series on HTT mRNA and in the series on SMN2 CJ mRNA was 1 to 10 µM each time. The GI50 (usually the concentration giving 50% growth inhibition) at 72 h in series [1] is 1 to 10 µM. Also, the AC50 with MYB mRNA and with HTT mRNA was 1 to 10 µM throughout.
`Cc1cc(-c2nn3c(=O)cc(N4CCNCC4)nc3s2)cc2cn(C)nc12` [Compound 206, 2-(2,7-dimethyl-2H-indazol-5-yl)-7-(piperazin-1-yl)-5H-[1,3,4]thiadiazolo[3,2-a]pyrimidin-5-one]: the IC50 (in general, the point on the concentration scale where inhibition reaches its midpoint) in the series with HTT CJ mRNA lay in the range of 1 to 10 µM; in the series with Target C CJ mRNA, 1 to 10 µM; in the series on MYB mRNA it was 1 to 10 µM; in the series with HTT mRNA it was 1 to 10 µM; with SMN2 CJ mRNA, 0.1 to 1 µM. The compound also showed a GI50 at 72 h in series [1] of 1 to 10 µM. The AC50 in the series with MYB mRNA and in the series with HTT mRNA was 1 to 10 µM in each case.
As to `Cc1cn2cc(-c3cc(=O)n4cc(N5CCNC6(CC6)C5)sc4n3)cc(F)c2n1` [Compound 207, 7-(8-fluoro-2-methylimidazo[1,2-a]pyridin-6-yl)-2-(4,7-diazaspiro[2.5]octan-7-yl)-5H-thiazolo[3,2-a]pyrimidin-5-one], the IC50 is > 10 µM in the series on HTT CJ mRNA; > 10 µM in the series with Target C CJ mRNA; 1 to 10 µM in the series on MYB mRNA; > 10 µM with HTT mRNA; 0.1 to 1 µM in the series with SMN2 CJ mRNA. For the same compound, the GI50 at 72 h in series [1] was > 10 µM. Also, the AC50 in the series with MYB mRNA and in the series with HTT mRNA was > 10 µM in each case.
Regarding `Cc1cn2cc(-c3cn4c(=O)cc(N5CCNC6(CC6)C5)nc4s3)cc(F)c2n1` [Compound 208, 2-(8-fluoro-2-methylimidazo[1,2-a]pyridin-6-yl)-7-(4,7-diazaspiro[2.5]octan-7-yl)-5H-thiazolo[3,2-a]pyrimidin-5-one], the IC50 with HTT CJ mRNA, in the series with Target C CJ mRNA, in the series on MYB mRNA, with HTT mRNA and with SMN2 CJ mRNA was 1 to 10 µM in each case. The GI50 at 72 h in series [1] lay within 1 to 10 µM. Also, the AC50 with MYB mRNA and in the series with HTT mRNA was 1 to 10 µM in each case.
For the compound `Cc1cn2cc(-c3cc(=O)n4nc(N5CCNC6(CC6)C5)sc4n3)cc(F)c2n1` [Compound 209, 7-(8-fluoro-2-methylimidazo[1,2-a]pyridin-6-yl)-2-(4,7-diazaspiro[2.5]octan-7-yl)-5H-[1,3,4]thiadiazolo[3,2-a]pyrimidin-5-one], the IC50 in the series on HTT CJ mRNA, in the series on Target C CJ mRNA, with MYB mRNA, with HTT mRNA and in the series on SMN2 CJ mRNA was 1 to 10 µM each time. Also, the GI50 at 72 h in series [1] fell in the range of 1 to 10 µM. For the same compound, the AC50 with MYB mRNA and with HTT mRNA was 1 to 10 µM in each case.
As for `Cc1cc(-c2nn3c(=O)cc(N4CCN(C)CC4)nc3s2)cc2cn(C)nc12` [Compound 210, 2-(2,7-dimethyl-2H-indazol-5-yl)-7-(4-methylpiperazin-1-yl)-5H-[1,3,4]thiadiazolo[3,2-a]pyrimidin-5-one], the IC50 in the series on HTT CJ mRNA, in the series with Target C CJ mRNA, in the series with MYB mRNA, in the series with HTT mRNA and with SMN2 CJ mRNA was 1 to 10 µM in each case. Further, the concentration for 50% growth inhibition (GI50) at 72 h in series [1] lay in the range of 1 to 10 µM. In addition, the AC50 in the series on MYB mRNA and in the series with HTT mRNA was 1 to 10 µM in each case.
In the case of `Cc1cn2nc(-c3cc(=O)n4cc(N5CCNC6(CC6)C5)sc4n3)cc(C)c2n1` [Compound 211, 7-(2,8-dimethylimidazo[1,2-b]pyridazin-6-yl)-2-(4,7-diazaspiro[2.5]octan-7-yl)-5H-thiazolo[3,2-a]pyrimidin-5-one], the IC50 in the series with HTT CJ mRNA was 1 to 10 µM; in the series with Target C CJ mRNA, 1 to 10 µM; with MYB mRNA, 1 to 10 µM; in the series with HTT mRNA, 1 to 10 µM; in the series on SMN2 CJ mRNA it was 0.1 to 1 µM. In series [1], this compound displayed a GI50 at 72 h of 1 to 10 µM. The AC50 (commonly the concentration giving half of the maximal activity seen) in the series on MYB mRNA lay within 0.1 to 1 µM; in the series with HTT mRNA it was 1 to 10 µM.
As for `Cc1cn2nc(-c3cn4c(=O)cc(N5CCNC6(CC6)C5)nc4s3)cc(C)c2n1` [Compound 212, 2-(2,8-dimethylimidazo[1,2-b]pyridazin-6-yl)-7-(4,7-diazaspiro[2.5]octan-7-yl)-5H-thiazolo[3,2-a]pyrimidin-5-one], the IC50 in the series with HTT CJ mRNA, in the series with Target C CJ mRNA, in the series with MYB mRNA, with HTT mRNA and in the series with SMN2 CJ mRNA was 1 to 10 µM each time. The GI50 at 72 h in series [1] lay within 1 to 10 µM. Moreover, the AC50 in the series on MYB mRNA and in the series on HTT mRNA was 1 to 10 µM throughout.
`Cc1cn2cc(-c3cn4c(=O)cc(N5CCNCC5)nc4s3)cc(F)c2n1` [Compound 213, 2-(8-fluoro-2-methylimidazo[1,2-a]pyridin-6-yl)-7-(piperazin-1-yl)-5H-thiazolo[3,2-a]pyrimidin-5-one]: the IC50 with HTT CJ mRNA was > 10 µM; in the series on Target C CJ mRNA, > 10 µM; in the series on MYB mRNA, > 10 µM; in the series on HTT mRNA, > 10 µM; in the series with SMN2 CJ mRNA, 1 to 10 µM. Besides, the GI50 at 72 h in series [1] was > 10 µM. Besides, the AC50 in the series on MYB mRNA and in the series on HTT mRNA was > 10 µM throughout.
For `Cc1cn2cc(-c3nn4c(=O)cc(N5CCNCC5)nc4s3)cc(F)c2n1` [Compound 214, 2-(8-fluoro-2-methylimidazo[1,2-a]pyridin-6-yl)-7-(piperazin-1-yl)-5H-[1,3,4]thiadiazolo[3,2-a]pyrimidin-5-one], the IC50 with HTT CJ mRNA was 1 to 10 µM; in the series with Target C CJ mRNA, > 10 µM; with MYB mRNA, 1 to 10 µM; in the series with HTT mRNA it was 1 to 10 µM; with SMN2 CJ mRNA, 0.1 to 1 µM. This compound registered a GI50 at 72 h in series [1] of 1 to 10 µM. Also, the AC50 with MYB mRNA was 1 to 10 µM; with HTT mRNA, > 10 µM.

For the origin of these results see patent US20240366612A1, “COMPOUNDS AND METHODS FOR MODULATING NUCLEIC ACID SPLICING” (REMIX THERAPEUTICS INC., priority 2021, published 2024).
